The source of these data is patent publication US20260297164A1, “ANTI-FIBROTIC PEPTIDES AND USES THEREOF” (Deackt, Inc., priority 2021, published 2026).

The test system of data set [1] is autophagy in lung fibroblasts. Description: TGF-β1 effect on autophagy (LC3, p62) in lung fibroblasts. It is filed as cell-based, mouse. The settings on record: TGF-β1 10 ng/ml, 24 h. On the procedure:
(§1) FIG. 3. CD148 deficiency enhances PI3K/Akt/mTOR signaling which results in low autophagy, high p62 expression in lung fibroblasts. (A) Mouse lung fibroblasts were isolated from Ptprj^fl/fl Col1a2^Cre-ER(T)+/0 mice (Ptprj−/−) and Col1a2^Cre-ER(T)+/0 mice (WT) and then treated with 4-OHT (1 μM) for 24 h. After 4-OHT treatment, cells were exposed to TGF-β1 (10 ng/ml) for 24 h. After stimulation, cells were harvested, and the expression of p-p85 (Tyr458), p-Akt (Ser473), pmTOR (Ser2448), p-p70 S6 kinase (Thr389), p-S6 ribosomal protein (Ser235/236) and CD148 (n=4 for each condition) in lysates was determined by Western immunoblotting and corresponding densitometry (ImageJ software). Data were normalized to corresponding dephospho-forms or GAPDH. (B) WT and Ptprj−/− cells were stimulated with TGF-β1 (10 ng/ml) for 24 h. Then cells were lysed and LC3-I and -II and p62 were measured by western blot (n=4). […] Then, autophagy flux was measured by LC3-II accumulation in the absence or presence of lysosomal acidification inhibitor chloroquine (25 μM) at 2, 4 and 6 h (n=4). […] LC3 puncta positive cells were quantified using ImageJ (D). […]
(§2) Polyacrylamide gel electrophoresis and immunoblotting were performed according to standard methods. […] The signals were detected by ECL (Thermo Fisher Scientific, Waltham, MA). […]

Data set [2] deals with PI3K/Akt/mTOR signaling in lung fibroblasts. Description: TGF-β1 stimulation of PI3K/Akt/mTOR signaling in lung fibroblasts. It is filed as cell-based, mouse. The settings on record: TGF-β1 10 ng/ml, 24 h. As for the experimental part: as §1, §2

Turning to TGF-β1, in data set [1], the “autophagy (LC3-II relative to LC3-I)” value is recorded as “downregulated autophagy” and the p62 expression entry is recorded as “increased p62 expression”. In addition, the “phosphorylation of PI3K (p85 subunit), Akt, mTOR and mTOR-related signaling proteins (p70 S6-kinase and S6)” value in data set [2] is “upregulated”.
